The numbers were not newly measured in patent US20110105434A1, “2-AMINO PURINE DERIVATIVES AND THEIR USE AS ANTI-HERPETIC AGENTS” (priority 2007, published 2011), which cites them from elsewhere.

For the data set the following is noted: oral maximum dose of 800 mg 5 times per day, most patients; cited from earlier work.

Consider `Nc1nc2c(ncn2COCCO)c(=O)[nH]1` [acyclovir, 2-amino-9-1,-dihydro-9-[(2-hydroxyethyl)methyl]-6H-purin-6-one], for which the blood level entry is “about 1.61 ng/mL”.
